Entries after “also recorded” stand apart in the source; their conditions may differ.
Assays:
[1] = metabolite profiling in pooled urine (radioprofiling, LC‐MS); type: in vivo, human; details: pooled urine 0‐96 hours, mean
Method: (§1) Total radioactivity concentrations of [^14C]‐pamiparib in whole blood, plasma, urine, and feces were determined by liquid scintillation counting (LSC). Radioactivity in each sample was measured for 5 minutes using a Packard Tri‐Carb liquid scintillation counter model 2100TR, 2900TR, or 3100TR (Canberra Packard, Pangbourne, Berks, Australia) with the facilities for computing quench‐corrected disintegrations per minute. Metabolite identification in plasma, urine, and feces was conducted by LC‐MS. Quantitation of the metabolites present in plasma, urine, and feces was based on the profiles of radioactivity. The limit of quantitation for radioactivity in plasma, urine, and feces was set at 1% of each chromatographic analysis (run) and 10 counts per minute (cpm) peak height; therefore, radioactive peaks that were <1% of the total run or <10 cpm peak height were reported as not detected. In addition, pamiparib and standards were reported, regardless of the percentage of run or peak height.
Each aliquot of urine (about 1 mL, weighed) was added directly to liquid scintillant prior to LSC. For metabolite profiling, urine samples collected 0‐4, 4‐8, 8‐12, 12‐24, 24‐48, 48‐72, and 72‐96 hours postdose were pooled by individual patient to generate 0‐ to 96‐hour pooled samples including 0.2% of each sample by weight. The radioactivity in each pooled sample was determined by LSC. The total amount of urine collected was factored into the recovery calculation. […] Pooled urine samples were analyzed by LC‐MS, with eluent fractions collected at 10‐second intervals into 96‐well plates containing solid scintillant. Radioactivity in each well was determined using TopCount analysis, and radiochemical profiles were generated based on radioactivity counts.
(§2) Metabolic profiling was performed on plasma, urine, and feces samples using LC‐MS. Shimadzu/Nexera LC‐30AD pumps and Shimadzu/Prominence DGU‐20A5R degasser were used with Shimadzu/Prominence controller CBM‐20A. The high‐pressure liquid chromatograph (HPLC) was equipped with an autoinjector (Shimadzu/Nexera SIL‐30ACMP) set at 10°C and a fraction collector (Leap Technologies PAL HTC‐xt) set at 15°C. Thermo Fisher Scientific Q Exactive was the mass spectrometer system.

rCYP3A4 = molecular target: T1, rCYP3A4 (Homo sapiens, UniProt P08684); assay: incubation of pamiparib with recombinant CYP3A4; type: in vitro ADME; details: 1 μM pamiparib, 50 pmol/mL, 90 minutes
T1 construct: purchased Corning (Woburn, New York)
Method: (§3) Metabolic stability in human liver microsomes (HLMs) and cytochrome P450 (CYP450) phenotyping assays were conducted in 3D BioOptima (Suzhou, China) using validated methodology, [13] to determine the intrinsic clearance and enzymes responsible for metabolism of pamiparib. HLMs for microsome stability was from BD Biosciences (Woburn, New York). For phenotyping, HLMs and recombinant P450 (rCYP) were from Corning (Woburn, New York). Pamiparib (1 μM) was incubated with pooled HLM (0.5 mg/mL), NADPH (1 mM), and MgCl2 (3 mM) terminated at 0, 5, 15, 30, 60, and 90 minutes. The intrinsic clearance was calculated as 0.693/(t1/2 × HLM concentration), where t1/2 is the half‐life of pamiparib determined in HLMs. For phenotyping in HLMs, pamiparib (1 μM) was incubated in the absence or presence of isoform‐selective inhibitors: 0.2 μM α‐naphthoflavone for CYP1A2, 2 μM clopidogrel for CYP2B6, 16 μM montelukast for CYP2C8, 10 μM sulfaphenazole for CYP2C9, 30 μM nootkatone for CYP2C19, 2 μM quinidine for CYP2D6, and 1 μM ketoconazole for CYP3A. The following isoform‐selective probe substrates served as positive controls: 40 μM phenacetin for CYP1A2, 100 μM bupropion for CYP2B6, 2 μM amodiaquine for CYP2C8, 5 μM diclofenac for CYP2C9, 40 μM S‐mephenytoin for CYP2C19, 5 μM dextromethorphan for CYP2D6, and 2 μM midazolam for CYP3A4. […] Pamiparib, M1, and M2 were analyzed by LC‐MS/MS.

rCYP2D6 = molecular target: T2, rCYP2D6 (Homo sapiens, UniProt P10635); assay: incubation of pamiparib with recombinant CYP2D6; type: in vitro ADME; details: 1 μM pamiparib, 50 pmol/mL, 90 minutes
T2 construct: purchased Corning (Woburn, New York)
Method: as §3

[2] = system: rCYP1A2, rCYP2B6, rCYP2C8, rCYP2C9, rCYP2C19, rCYP2D6, rCYP3A4; assay: incubation of pamiparib with recombinant P450 isoform panel; type: in vitro ADME; details: 1 μM pamiparib, 50 pmol/mL, 90 minutes
Method: as §3

[3] = metabolite profiling in plasma (radioprofiling, LC‐MS); type: in vivo, human; details: plasma
Method: as §1
For metabolite profiling in plasma, ≈1.9 to 2.8 g of each plasma sample collected 0.5, 1, 2, 6, 12, and 24 hours postdose was extracted twice with 6 mL of 0.1% formic acid in acetonitrile (ACN). Duplicate aliquots were analyzed by LSC to determine extraction recoveries, which ranged from 77.4% to 98.5%. The combined supernatants were evaporated to dryness under nitrogen and reconstituted in 2:1 reverse osmosis water:methanol (MeOH). Duplicate aliquots were analyzed by LSC to determine reconstitution recoveries, which ranged from 89.3% to 115%. The reconstituted samples were analyzed by LC‐MS, with eluent fractions collected at 10‐second intervals into 96‐well plates containing solid scintillant. Radioactivity in each well was determined using TopCount analysis, and radiochemical profiles were generated based on radioactivity counts.
as §2

[4] = metabolite profiling in pooled feces (radioprofiling, LC‐MS); type: in vivo, human; details: pooled feces 0‐120 hours, mean
Method: as §1
Portions of fecal homogenates (about 200‐500 mg) were subjected to combustion analysis prior to LSC. For metabolite profiling, feces samples collected 0‐24, 24‐48, 48‐72, 72‐96, and 96‐120 hours postdose were pooled by individual patient to generate 0‐ to 120‐hour pooled samples including 0.5% of each sample by weight. Feces were pooled per patient (if required) according to the appropriate 24‐hour collection period. The samples were homogenized in deionized water, avoiding excessive dilution (data on file). The radioactivity in each pooled sample was determined by LSC. The total amount of feces collected was factored into the recovery calculation. Approximately 1.6 to 2.7 g of each pooled feces sample was extracted twice with 6 mL of 0.1% formic acid in ACN. […] The combined supernatants were evaporated to dryness under nitrogen and reconstituted in 300 μL of MeOH. […] The reconstituted samples were analyzed by LC‐MS, with eluent fractions collected, and radiochemical profiles were generated based on radioactivity counts. […]

rCYP2C8 = molecular target: T3, rCYP2C8 (Homo sapiens, UniProt P10632); assay: incubation of pamiparib with recombinant CYP2C8; type: in vitro ADME; details: 1 μM pamiparib, 50 pmol/mL, 90 minutes
T3 construct: purchased Corning (Woburn, New York)
T3 sequence (P10632 1-490): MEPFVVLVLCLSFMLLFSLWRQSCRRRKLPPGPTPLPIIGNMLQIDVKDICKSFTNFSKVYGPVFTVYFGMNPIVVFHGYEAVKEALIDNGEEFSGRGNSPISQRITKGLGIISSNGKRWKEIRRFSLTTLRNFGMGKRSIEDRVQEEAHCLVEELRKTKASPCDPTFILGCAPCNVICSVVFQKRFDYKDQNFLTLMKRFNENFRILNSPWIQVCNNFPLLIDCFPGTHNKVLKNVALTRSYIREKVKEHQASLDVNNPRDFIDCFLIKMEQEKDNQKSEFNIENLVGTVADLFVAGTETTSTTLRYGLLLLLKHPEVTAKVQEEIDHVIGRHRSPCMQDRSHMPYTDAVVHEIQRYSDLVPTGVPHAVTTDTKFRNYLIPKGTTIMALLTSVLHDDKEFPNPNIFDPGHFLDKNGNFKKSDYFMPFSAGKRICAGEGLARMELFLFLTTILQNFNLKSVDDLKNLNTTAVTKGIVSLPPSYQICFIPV
Method: as §3

[5] = stability of metabolite M2; type: physicochemical; details: dehydrates in the LC‐MS source or under other conditions

T2 sequence (P10635 whole entry): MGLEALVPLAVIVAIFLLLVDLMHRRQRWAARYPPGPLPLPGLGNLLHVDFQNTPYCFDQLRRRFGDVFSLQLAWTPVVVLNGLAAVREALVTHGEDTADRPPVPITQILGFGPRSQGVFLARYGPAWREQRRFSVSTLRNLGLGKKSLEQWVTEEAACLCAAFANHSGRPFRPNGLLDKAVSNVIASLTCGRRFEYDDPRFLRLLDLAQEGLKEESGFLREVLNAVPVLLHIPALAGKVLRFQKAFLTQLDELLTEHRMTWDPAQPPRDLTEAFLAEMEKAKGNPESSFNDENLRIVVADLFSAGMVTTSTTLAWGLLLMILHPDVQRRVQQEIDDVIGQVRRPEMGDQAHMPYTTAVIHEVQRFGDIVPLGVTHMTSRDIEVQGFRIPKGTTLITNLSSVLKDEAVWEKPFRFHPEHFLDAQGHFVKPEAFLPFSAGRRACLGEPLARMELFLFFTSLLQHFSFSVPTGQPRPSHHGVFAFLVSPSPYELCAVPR
T1 sequence (P08684 whole entry): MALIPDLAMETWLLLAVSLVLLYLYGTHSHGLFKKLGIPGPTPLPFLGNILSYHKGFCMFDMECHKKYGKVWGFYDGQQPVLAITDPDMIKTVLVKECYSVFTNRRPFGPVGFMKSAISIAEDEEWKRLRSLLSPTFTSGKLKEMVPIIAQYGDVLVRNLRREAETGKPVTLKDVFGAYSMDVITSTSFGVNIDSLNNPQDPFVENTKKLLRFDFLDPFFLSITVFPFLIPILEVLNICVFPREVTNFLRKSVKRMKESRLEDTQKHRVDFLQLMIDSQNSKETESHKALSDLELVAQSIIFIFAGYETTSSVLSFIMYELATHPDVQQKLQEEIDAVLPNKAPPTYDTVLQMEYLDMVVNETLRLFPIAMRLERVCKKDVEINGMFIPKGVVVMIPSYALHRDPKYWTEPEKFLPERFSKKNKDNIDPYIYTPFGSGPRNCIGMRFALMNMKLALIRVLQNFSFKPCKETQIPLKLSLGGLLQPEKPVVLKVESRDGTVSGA

% of Radioactive Dose, Urine [1]	metabolite formation after incubation of pamiparib with rCYP3A4 (rCYP3A4)	metabolite formation after incubation of pamiparib with rCYP2D6 (rCYP2D6)	metabolite detection across rCYP isoforms [2]	Percent of Total Radioactivity Concentration (AUC0‐24h) ([3]; patient S103) [%]	Percent of Total Radioactivity Concentration (AUC0‐24h) ([3]; patient S104) [%]	% of Radioactive Dose, Feces [4]	metabolite formation after incubation of pamiparib with rCYP2C8 (rCYP2C8)	stability of the metabolite [5]	Compound
0.53%	detected; also recorded: generated	detected; also recorded: generated	not detected with other rCYP isoforms	–	–	–	–	–	C[C@]12CCC[N+]1([O-])CC1=NNC(=O)c3cc(F)cc4[nH]c2c1c34 (stereo partly drawn) [Metabolite M1]
not identified	higher levels	higher levels; also recorded: generated	detected in all isoforms except rCYP2C9	2.00	4.38	not identified	higher levels; also recorded: generated	not stable	C[C@]12CCC(O)N1CC1=NNC(=O)c3cc(F)cc4[nH]c2c1c34 (stereo partly drawn) [Metabolite M2]
8.05%	–	–	–	–	–	1.3%	–	–	C[C@]1(CCCO)NCC2=NNC(=O)c3cc(F)cc4[nH]c1c2c34 [Metabolite M10, pamiparib hydrate]
